Experimental findings from PubChem BioAssay (NCI) are described below.

Holding throughout (test): NCI-60 cell line screen, 48 h
Test [1] deals with DU-145 prostate.
For test [2], the system named is RXF-631 renal.
Test [3] concerns MDA-N.
The test system of test [4] is T-47D breast.
Test [5] has as its system KM20L2 colon.

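Interpolation was linear, between the two tested concentrations surrounding the appropriate level; five concentrations were tested over 48 hours in 96-well plates. Definition used: TGI = concentration required for complete inhibition of growth.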 Some results are limits rather than exact numbers.

`COc1c(Cl)cc(NC(=S)C#N)cc1Cl`: the TGI in test [1] was greater than 100 µM; in test [2], 51.3 µM; in test [3] it was 69.1 µM; in test [4], 90.6 µM; in test [5] it was 54.4 µM.
With `Cc1ccc(Nc2nc(C)c(C(/C=C/c3ccc(/C=C/C(=N/NC(=O)C[n+]4ccccc4)c4sc(Nc5ccc(C)cc5[N+](=O)[O-])nc4C)cc3)=N\NC(=O)C[n+]3ccccc3)s2)c([N+](=O)[O-])c1`, the TGI in test [2] and in test [5] was greater than 100 µM each time.
In the case of `Cc1[nH]c2ccccc2c1C1Cc2ccccc2N1C(=O)/C=C/C(=O)O` (configuration not stated), the TGI was 41.3 µM in test [2] and greater than 100 µM in test [5].
For `COC(=O)c1cc(Cl)ccc1NC(=O)c1ccc([N+](=O)[O-])cc1`, in that order: 36.5 µM and 76.8 µM.
For `COc1ccc2ccccc2c1C1OC(=O)c2ccccc21` (configuration not stated), in that order: greater than 100 µM and greater than 100 µM.
The corresponding values for `CCc1cccc(C)c1NC(=O)C(=O)Cc1nc2ccccc2s1` are greater than 100 µM and greater than 100 µM.
Turning to `CC(C)c1cccc2sc(NC(=O)C(=O)C(C#N)c3cccc4ccccc34)nc12` (configuration not stated), the TGI in test [2] and in test [5] was greater than 100 µM each time.
In the case of `COC(=O)CCC(NC(=S)N/N=C/c1ccco1)C(=O)OC` (configuration not stated), the TGI in test [2] and in test [5] was greater than 100 µM each time.
Regarding `C[C@]12CCC3[C@@H](CC[C@@H]4c5nonc5CC[C@]34C)C1C/C(=N/O)C2=O` (some centres not stated), the TGI in test [2] and in test [5] was greater than 100 µM each time.
For `C[Si](C)(C)c1ccc(-c2sc(-c3ccc([Si](C)(C)C)s3)c3c2C[Si]2(C3)Cc3c(-c4ccc([Si](C)(C)C)s4)sc(-c4ccc([Si](C)(C)C)s4)c3C2)s1`, the TGI in test [2] and in test [5] was greater than 100 µM each time.
Turning to `CCOC(=O)NC(=O)c1cn(CCCCCCOC(=O)NCCCCCCNC(=O)OCCCCCCn2cc(C(=O)NC(=O)OCC)c(=O)[nH]c2=O)c(=O)[nH]c1=O`, the TGI in test [2] and in test [5] was greater than 100 µM throughout.
As to `CN1c2ccccc2N(C)C23N(C)c4ccccc4N(C)C12N(C)c1ccccc1N3C` (configuration not stated), the TGI in test [2] and in test [5] was greater than 100 µM each time.
For the compound `C/C(CC(=O)Nc1ccc(Cl)cc1)=N\NC(N)=S`, the TGI in test [2] and in test [5] was greater than 100 µM throughout.
With `COc1ccc(/C=C\c2cc(OC)c(OC)c(OC)c2)cc1OC`, the TGI in test [2] was 40.4 µM; in test [4] it was greater than 100 µM; in test [5], 0.141 µM.
